Earlier results as cited in PMC4895201 (Journal of natural products, 2009).

Key:
[1] = test system: breast and prostate xenografts; details: compared with KF (3)
[2] = test system: epidermal growth factor receptor (ErbB family); details: early research

Substance | antitumor activity, in vitro and in vivo (various solid cell lines) | in vivo efficacy against breast and prostate xenografts [1] | blockade of epidermal growth factor receptor (ErbB family) [2]
(4S)- methylhexanoic kahalalide F [isoKF (4)] | significant in vitro and in vivo antitumor activity against various solid cell lines | enhanced efficacy against breast and prostate xenografts | 
kahalalide F [KF (3)] | significant in vitro and in vivo antitumor activity against various solid cell lines |  | blocked the epidermal growth factor receptor (ErbB family)
